Each block holds one compound with its values, some of them ahead of it.
Biological target: T1, Enoyl-[acyl-carrier-protein] reductase [NADPH] FabI (Staphylococcus aureus (strain MRSA252), UniProt Q6GI75)
T1 sequence (Q6GI75 whole entry): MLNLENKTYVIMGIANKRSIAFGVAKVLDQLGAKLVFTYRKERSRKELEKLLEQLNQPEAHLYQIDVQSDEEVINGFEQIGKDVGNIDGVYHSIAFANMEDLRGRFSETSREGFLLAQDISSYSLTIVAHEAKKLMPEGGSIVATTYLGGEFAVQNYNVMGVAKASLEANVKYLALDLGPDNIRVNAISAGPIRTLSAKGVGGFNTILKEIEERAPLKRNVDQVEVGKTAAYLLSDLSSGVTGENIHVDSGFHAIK
Assay: Enzyme Inhibition Assay
Details: pH 6.5; 30 °C
Procedure: Assays were carried out in half-area, 96-well microtiter plates. Compounds were evaluated in assay mixtures containing components specific for each enzyme. Inhibitors were varied over the range 0.01-10 uM. The consumption of NAD(P)H was monitored for 20 min at 30 °C by following the change in absorbance at 340 nm. IC50 values were estimated from a fit of the initial velocities to a standard equation.

SMILES: CN1Cc2cc(C(=O)N3CCc4c([nH]c5ccccc45)C3)ccc2NC(CC(=O)O)C1=O (stereo not drawn) [2-(4-methyl-3-oxo-7-{1H,2H,3H,4H,9H-pyrido[3,4-b]indol-2-ylcarbonyl}-2,3,4,5-tetrahydro-1H-1,4-benzodiazepin-2-yl)acetic acid]
- IC50: 7.8 µM

SMILES: O=C(c1ccccc1)N1CCc2c([nH]c3ccccc23)C1 [2-benzoyl-1H,2H,3H,4H,9H-pyrido[3,4-b]indole]
- IC50: 2.7 µM

SMILES: O=C(c1ccc(O)cc1)N1CCc2c(n(Cc3ccccc3)c3ccccc23)C1 [4-({9-benzyl-1H,2H,3H,4H,9H-pyrido[3,4-b]indol-2-yl}carbonyl)phenol]
- IC50: 1.3 µM

SMILES: Cn1c2c(c3ccccc31)CCN(C(=O)c1ccc(O)cc1)C2 [4-({9-methyl-1H,2H,3H,4H,9H-pyrido[3,4-b]indol-2-yl}carbonyl)phenol]
- IC50: 1.4 µM

SMILES: COC(=O)CCCCn1c2c(c3ccccc31)CCN(C(=O)c1ccc(O)cc1)C2 [methyl 5-{2-[(4-hydroxyphenyl)carbonyl]-1H,2H,3H,4H,9H-pyrido[3,4-b]indol-9-yl}pentanoate]
- IC50: 4.6 µM

Second part, the compound after the results:

- IC50: 0.42 µM
SMILES: O=C(c1ccc(O)cc1)N1CCc2c(n(Cc3cccc(O)c3)c3ccccc23)C1 [4-({9-[(3-hydroxyphenyl)methyl]-1H,2H,3H,4H,9H-pyrido[3,4-b]indol-2-yl}carbonyl)phenol]

- IC50: 1.4 µM
SMILES: O=C(c1ccc(O)cc1)N1CCc2c([nH]c3ccccc23)C1 [4-{1H,2H,3H,4H,9H-pyrido[3,4-b]indol-2-ylcarbonyl}phenol]

- IC50: 9.8 µM
SMILES: COC(=O)Cn1c2c(c3ccccc31)CCN(C(=O)c1ccc(O)cc1)C2 [methyl 2-{2-[(4-hydroxyphenyl)carbonyl]-1H,2H,3H,4H,9H-pyrido[3,4-b]indol-9-yl}acetate]

Reference: BindingDB's records for doi:10.1016/s0960-894x(01)00405-x (Glaxosmithkline, 2001)
